Data from publication PMC8436250 (Nature structural & molecular biology, 2019).
One block for each molecule: values may come before it.

Key:
[1] = target: T1, ATP-citrate lyase (ACLY) (Homo sapiens, UniProt P53396, E599Q); experiment: cryo-EM structure; type: binding
T1 sequence (P53396 1-1101 E599Q): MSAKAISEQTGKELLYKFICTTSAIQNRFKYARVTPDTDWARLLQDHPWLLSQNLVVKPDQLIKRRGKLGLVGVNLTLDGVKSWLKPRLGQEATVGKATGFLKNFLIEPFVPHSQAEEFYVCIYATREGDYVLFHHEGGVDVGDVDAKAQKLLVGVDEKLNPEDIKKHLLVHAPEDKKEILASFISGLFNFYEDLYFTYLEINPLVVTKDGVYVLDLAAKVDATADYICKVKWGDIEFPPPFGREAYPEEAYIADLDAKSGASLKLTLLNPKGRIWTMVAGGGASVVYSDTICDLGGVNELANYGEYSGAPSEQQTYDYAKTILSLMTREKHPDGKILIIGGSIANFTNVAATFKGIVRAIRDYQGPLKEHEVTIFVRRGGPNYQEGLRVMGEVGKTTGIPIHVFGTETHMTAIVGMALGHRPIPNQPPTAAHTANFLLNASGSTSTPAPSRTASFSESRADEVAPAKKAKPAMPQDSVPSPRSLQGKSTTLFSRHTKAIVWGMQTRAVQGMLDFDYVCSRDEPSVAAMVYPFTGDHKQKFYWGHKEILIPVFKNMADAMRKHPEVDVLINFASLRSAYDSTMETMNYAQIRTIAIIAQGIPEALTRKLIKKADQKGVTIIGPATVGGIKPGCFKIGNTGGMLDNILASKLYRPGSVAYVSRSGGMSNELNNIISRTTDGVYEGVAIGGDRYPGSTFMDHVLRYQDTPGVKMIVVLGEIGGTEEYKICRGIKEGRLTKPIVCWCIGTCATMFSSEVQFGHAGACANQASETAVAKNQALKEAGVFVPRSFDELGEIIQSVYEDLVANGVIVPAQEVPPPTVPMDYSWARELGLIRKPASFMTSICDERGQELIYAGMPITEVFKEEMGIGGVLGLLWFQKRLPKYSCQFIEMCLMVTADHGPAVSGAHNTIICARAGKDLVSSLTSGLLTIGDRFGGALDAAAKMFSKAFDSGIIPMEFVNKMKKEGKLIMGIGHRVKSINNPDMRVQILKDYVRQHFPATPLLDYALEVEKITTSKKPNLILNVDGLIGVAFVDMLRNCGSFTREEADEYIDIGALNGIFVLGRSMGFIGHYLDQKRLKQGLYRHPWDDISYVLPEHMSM

[2] = target: T2, ATP-citrate lyase (ACLY) (Homo sapiens, UniProt P53396); experiment: cryo-EM structure; type: binding
T2 sequence (P53396 1-1101): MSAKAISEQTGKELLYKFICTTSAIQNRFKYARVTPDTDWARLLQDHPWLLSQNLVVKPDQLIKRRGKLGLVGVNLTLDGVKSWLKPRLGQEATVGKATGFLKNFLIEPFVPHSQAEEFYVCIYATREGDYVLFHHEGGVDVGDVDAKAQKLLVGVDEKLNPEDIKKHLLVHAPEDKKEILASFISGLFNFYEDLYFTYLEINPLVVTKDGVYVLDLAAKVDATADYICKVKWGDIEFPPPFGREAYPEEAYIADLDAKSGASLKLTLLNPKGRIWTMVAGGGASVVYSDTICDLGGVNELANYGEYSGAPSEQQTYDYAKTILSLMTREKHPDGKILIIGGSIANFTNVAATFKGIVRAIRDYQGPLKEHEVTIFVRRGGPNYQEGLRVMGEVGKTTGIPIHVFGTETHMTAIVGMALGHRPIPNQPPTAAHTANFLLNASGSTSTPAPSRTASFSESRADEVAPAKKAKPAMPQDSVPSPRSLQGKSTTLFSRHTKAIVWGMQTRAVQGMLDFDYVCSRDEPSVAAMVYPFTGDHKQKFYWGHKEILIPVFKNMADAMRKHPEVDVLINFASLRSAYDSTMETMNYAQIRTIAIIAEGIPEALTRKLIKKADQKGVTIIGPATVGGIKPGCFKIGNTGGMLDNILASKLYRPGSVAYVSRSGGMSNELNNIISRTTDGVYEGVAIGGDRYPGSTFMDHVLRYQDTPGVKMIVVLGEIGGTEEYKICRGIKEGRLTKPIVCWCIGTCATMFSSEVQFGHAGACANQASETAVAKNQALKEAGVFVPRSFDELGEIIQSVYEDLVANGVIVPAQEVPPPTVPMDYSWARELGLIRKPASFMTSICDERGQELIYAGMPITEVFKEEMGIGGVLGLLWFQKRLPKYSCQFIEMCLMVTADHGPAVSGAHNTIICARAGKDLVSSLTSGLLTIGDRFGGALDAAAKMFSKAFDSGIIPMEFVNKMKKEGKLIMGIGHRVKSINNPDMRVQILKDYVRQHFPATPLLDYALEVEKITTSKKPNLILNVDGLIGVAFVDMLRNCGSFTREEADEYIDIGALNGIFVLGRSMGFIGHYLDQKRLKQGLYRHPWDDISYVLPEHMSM

[3] = target: T2, ATP-citrate lyase (ACLY); experiment: cryo-EM structure; type: binding; remark: listed apart in the source
[4] = target: T2, ATP-citrate lyase (ACLY); experiment: cryo-EM structure; type: binding; remark: listed apart in the source
[5] = target: T2, ATP-citrate lyase (ACLY); experiment: steady-state intrinsic fluorescence titration, one-site fit; type: binding
[6] = target: T3, ATP-citrate lyase (ACLY), full length human, wild type (human), P53396; experiment: cryo-EM structure; conditions: remark: other sources report otherwise
T3 chain: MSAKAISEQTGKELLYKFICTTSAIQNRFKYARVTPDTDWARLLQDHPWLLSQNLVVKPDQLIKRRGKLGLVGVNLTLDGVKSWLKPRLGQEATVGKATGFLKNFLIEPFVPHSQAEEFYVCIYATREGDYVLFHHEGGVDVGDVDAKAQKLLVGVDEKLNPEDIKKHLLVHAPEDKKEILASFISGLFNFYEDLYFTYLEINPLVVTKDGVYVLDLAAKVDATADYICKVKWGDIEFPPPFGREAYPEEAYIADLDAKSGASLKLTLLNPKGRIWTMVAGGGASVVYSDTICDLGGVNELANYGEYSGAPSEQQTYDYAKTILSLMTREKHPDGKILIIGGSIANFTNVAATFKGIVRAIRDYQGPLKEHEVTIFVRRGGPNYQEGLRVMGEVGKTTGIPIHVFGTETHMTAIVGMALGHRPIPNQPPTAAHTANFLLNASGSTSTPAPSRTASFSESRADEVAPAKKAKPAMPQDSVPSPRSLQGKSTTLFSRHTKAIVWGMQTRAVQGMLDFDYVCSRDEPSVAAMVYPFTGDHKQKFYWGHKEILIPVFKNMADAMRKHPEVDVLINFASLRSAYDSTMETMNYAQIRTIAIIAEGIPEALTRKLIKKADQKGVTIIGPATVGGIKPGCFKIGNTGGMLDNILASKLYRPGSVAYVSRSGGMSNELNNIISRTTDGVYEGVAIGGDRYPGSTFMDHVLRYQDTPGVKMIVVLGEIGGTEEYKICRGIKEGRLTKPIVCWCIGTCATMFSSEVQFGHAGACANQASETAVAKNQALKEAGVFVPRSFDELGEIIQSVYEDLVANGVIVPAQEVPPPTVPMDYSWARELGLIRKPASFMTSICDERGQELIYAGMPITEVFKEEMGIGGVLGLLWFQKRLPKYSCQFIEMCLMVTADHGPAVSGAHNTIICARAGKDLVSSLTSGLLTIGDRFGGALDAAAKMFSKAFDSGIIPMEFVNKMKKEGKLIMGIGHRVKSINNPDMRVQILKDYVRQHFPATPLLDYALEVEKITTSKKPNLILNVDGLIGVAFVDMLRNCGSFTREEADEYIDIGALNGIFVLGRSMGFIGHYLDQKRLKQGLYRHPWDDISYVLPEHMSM

[7] = target: the molecule itself; experiment: cryo-EM structure

Molecule: Nc1ncnc2c1ncn2[C@@H]1O[C@H](COP(=O)(O)OP(=O)(O)O)[C@@H](O)[C@H]1O [ADP]
cryo-EM structure (2.85 Å) of mutant mixed with ATP, citrate and CoA [1]: ACLY-E599Q–ATP–citrate–CoA structure highlighting the bound ADP (hydrolyzed ATP) and phospho-citryl-CoA intermediate

Molecule: CC(C)(COP(=O)(O)OP(=O)(O)OC[C@H]1O[C@@H](n2cnc3c(N)ncnc32)[C@H](O)[C@@H]1OP(=O)(O)O)[C@@H](O)C(=O)NCCC(=O)NCCS [CoA, Coenzyme A]
cryo-EM structure (3.0 Å, D2) [2]: CoA binds at the interface between the CSH and ASH domains of separate subunits

Molecule: O=C(O)CC(=O)C(=O)O [OAA, oxaloacetate]
Kd [3]: 15 ± 4 µM

Molecule: CC(=O)SCCNC(=O)CCNC(=O)[C@H](O)C(C)(C)COP(=O)(O)OP(=O)(O)OC[C@H]1O[C@@H](n2cnc3c(N)ncnc32)[C@H](O)[C@@H]1OP(=O)(O)O [acetyl-CoA]
cryo-EM structure (3.1 Å, D2) with OAA; DSF stabilization [4]: acetyl-CoA occupied the same binding site as CoA and was also stabilized by the same basic residues, R576 and K964

Molecule: O=C(O)CC(O)(CC(=O)O)C(=O)O [citrate]
Kd [5]: 3.4 ± 0.5 µM

stoichiometry N [6]: 4
B1: ATP-citrate lyase (ACLY), full length human, wild type, P53396 1-1101 (enzyme)
chain: MSAKAISEQTGKELLYKFICTTSAIQNRFKYARVTPDTDWARLLQDHPWLLSQNLVVKPDQLIKRRGKLGLVGVNLTLDGVKSWLKPRLGQEATVGKATGFLKNFLIEPFVPHSQAEEFYVCIYATREGDYVLFHHEGGVDVGDVDAKAQKLLVGVDEKLNPEDIKKHLLVHAPEDKKEILASFISGLFNFYEDLYFTYLEINPLVVTKDGVYVLDLAAKVDATADYICKVKWGDIEFPPPFGREAYPEEAYIADLDAKSGASLKLTLLNPKGRIWTMVAGGGASVVYSDTICDLGGVNELANYGEYSGAPSEQQTYDYAKTILSLMTREKHPDGKILIIGGSIANFTNVAATFKGIVRAIRDYQGPLKEHEVTIFVRRGGPNYQEGLRVMGEVGKTTGIPIHVFGTETHMTAIVGMALGHRPIPNQPPTAAHTANFLLNASGSTSTPAPSRTASFSESRADEVAPAKKAKPAMPQDSVPSPRSLQGKSTTLFSRHTKAIVWGMQTRAVQGMLDFDYVCSRDEPSVAAMVYPFTGDHKQKFYWGHKEILIPVFKNMADAMRKHPEVDVLINFASLRSAYDSTMETMNYAQIRTIAIIAEGIPEALTRKLIKKADQKGVTIIGPATVGGIKPGCFKIGNTGGMLDNILASKLYRPGSVAYVSRSGGMSNELNNIISRTTDGVYEGVAIGGDRYPGSTFMDHVLRYQDTPGVKMIVVLGEIGGTEEYKICRGIKEGRLTKPIVCWCIGTCATMFSSEVQFGHAGACANQASETAVAKNQALKEAGVFVPRSFDELGEIIQSVYEDLVANGVIVPAQEVPPPTVPMDYSWARELGLIRKPASFMTSICDERGQELIYAGMPITEVFKEEMGIGGVLGLLWFQKRLPKYSCQFIEMCLMVTADHGPAVSGAHNTIICARAGKDLVSSLTSGLLTIGDRFGGALDAAAKMFSKAFDSGIIPMEFVNKMKKEGKLIMGIGHRVKSINNPDMRVQILKDYVRQHFPATPLLDYALEVEKITTSKKPNLILNVDGLIGVAFVDMLRNCGSFTREEADEYIDIGALNGIFVLGRSMGFIGHYLDQKRLKQGLYRHPWDDISYVLPEHMSM

B2: ATP-citrate lyase (ACLY) E599Q catalytic mutant, full length human (enzyme, UniProt P53396 1-1101, looked up)
chain: MSAKAISEQTGKELLYKFICTTSAIQNRFKYARVTPDTDWARLLQDHPWLLSQNLVVKPDQLIKRRGKLGLVGVNLTLDGVKSWLKPRLGQEATVGKATGFLKNFLIEPFVPHSQAEEFYVCIYATREGDYVLFHHEGGVDVGDVDAKAQKLLVGVDEKLNPEDIKKHLLVHAPEDKKEILASFISGLFNFYEDLYFTYLEINPLVVTKDGVYVLDLAAKVDATADYICKVKWGDIEFPPPFGREAYPEEAYIADLDAKSGASLKLTLLNPKGRIWTMVAGGGASVVYSDTICDLGGVNELANYGEYSGAPSEQQTYDYAKTILSLMTREKHPDGKILIIGGSIANFTNVAATFKGIVRAIRDYQGPLKEHEVTIFVRRGGPNYQEGLRVMGEVGKTTGIPIHVFGTETHMTAIVGMALGHRPIPNQPPTAAHTANFLLNASGSTSTPAPSRTASFSESRADEVAPAKKAKPAMPQDSVPSPRSLQGKSTTLFSRHTKAIVWGMQTRAVQGMLDFDYVCSRDEPSVAAMVYPFTGDHKQKFYWGHKEILIPVFKNMADAMRKHPEVDVLINFASLRSAYDSTMETMNYAQIRTIAIIAQGIPEALTRKLIKKADQKGVTIIGPATVGGIKPGCFKIGNTGGMLDNILASKLYRPGSVAYVSRSGGMSNELNNIISRTTDGVYEGVAIGGDRYPGSTFMDHVLRYQDTPGVKMIVVLGEIGGTEEYKICRGIKEGRLTKPIVCWCIGTCATMFSSEVQFGHAGACANQASETAVAKNQALKEAGVFVPRSFDELGEIIQSVYEDLVANGVIVPAQEVPPPTVPMDYSWARELGLIRKPASFMTSICDERGQELIYAGMPITEVFKEEMGIGGVLGLLWFQKRLPKYSCQFIEMCLMVTADHGPAVSGAHNTIICARAGKDLVSSLTSGLLTIGDRFGGALDAAAKMFSKAFDSGIIPMEFVNKMKKEGKLIMGIGHRVKSINNPDMRVQILKDYVRQHFPATPLLDYALEVEKITTSKKPNLILNVDGLIGVAFVDMLRNCGSFTREEADEYIDIGALNGIFVLGRSMGFIGHYLDQKRLKQGLYRHPWDDISYVLPEHMSM
binding result [7]: binds
